Patent US20260007774A1, “AAV-MEDIATED DELIVERY OF RGS10 TO MICROGLIA” (NEURONITY THERAPEUTICS, INC., priority 2022, published 2026)

How the values were obtained:
[1] = tested on: RGS10 KD BV2 cells; assay: TNF-α production after antioxidant treatment, RGS10 KD BV2 microglia (Meso-Scale Discovery immunoassay); assay type: cell-based, mouse; conditions: 5 mM, 18 hours
Procedure: (§1) BV2 cells are a type of microglial cell line that was originally derived from a C57/B16 mouse. BV2 cells were immortalized by v-raf/v-myc J2 retrovirus.
(§2) The role of RGS10 in regulating a response to inflammatory and metabolic stresses was assessed in microglia cells. BV2 cells were grown in culture and RGS10 expression in BV2 cells was diminished by CRISPR/Cas9 RGS10 knockout methods. Control cells were obtained from CRISPR/Cas9 controls.
(§3) Control and RGS10 KD BV2 cells were allocated into 2 test conditions. The 2 test conditions were 1) Control (no treatment) 2) N-acetylcysteine (NAC) treatment (5 mM). NAC is an antioxidant precursor. NAC is a precursor of L-cysteine that results in biosynthesis of glutathione. Glutathione is a powerful, naturally occurring antioxidant. NAC also acts directly as a scavenger of free radicals, especially oxygen radicals, illustrating extensive antioxidant properties of NAC treatment. NAC treatment in cells leads to a reduction in reactive oxidative species (ROS).
(§4) Cultured cells were subjected to test conditions for 18 hours and then assayed for production of TNF-α using an immunoassay (Meso-Scale Discovery). Values for TNF-α production in Control and RGS10 KD BV2 cells under Condition 1) were scaled to value of 1.0. Values for TNF-α production after NAC treatment were represented as a % of change relative to Condition 1) levels and were graphed in FIG. 3.

[2] = tested on: Control BV2 cells; assay: TNF-α production after antioxidant treatment, Control BV2 microglia (Meso-Scale Discovery immunoassay); assay type: cell-based, mouse; conditions: 5 mM, 18 hours
Procedure: as §1, §2, §3, §4

CC(=O)N[C@@H](CS)C(=O)O [NAC, N-acetylcysteine] was tested, and the “TNF-α production after treatment vs no treatment” value [1] was “statistically significant reduction in level of TNF-α production” and the “TNF-α production after treatment vs no treatment” value [2] was “statistically significant reduction in level of TNF-α production”.
